Test [1] concerns corn plants (variety NK OCTET). Kind of test: Water use (WU) of corn plants after foliar spray. Format: in vivo. The note with it: foliar spray at 500 μM, vs negative control.
A further test addresses PYR1-HAB1 (Arabidopsis thaliana (Mouse-ear cress), UniProt O49686). Briefly: PP2C activity assay, PYR1-HAB1. In kind it is biochemical. The note with it: 100 nM PP2C, 200 nM PYR/PYL protein, 4-nitrophenyl phosphate substrate; read-out: IC50 of inhibition of PYR1-HAB1. From the text: (§1) The protein HAB1, a type 2 protein phosphatase (PP2C), is inhibited by PYR/PYL proteins in dependence of abscisic acid or other receptor agonists. The potency of a receptor agonists correlates with the level of inhibition of the PP2C, and therefore the IC50 (PYR1-HAB1) can be used to compare the relative activity of different chemical analogues. Since inhibition of PP2C correlates to inhibition of seed-germination and increase in plant water-use efficiency, it serves as a powerful tool to quantify biological potential of a chemical acting as an analogue of abscisic acid.
(§2) HAB1 and PYL proteins were expressed and purified as described in Park et al. ((2009) Science 324(5930):1068-1071), with minor modifications. To obtain GST-HAB1, the HAB1 cDNA was cloned into pGex-2T. Expression was conducted in BL21[DE3]pLysS host cells. Transformed cells were pre-cultured overnight, transferred to LB medium and cultured at 30° C. to culture A600 of ˜0.5.
(§3) The culture was then cooled on ice and MnCl2 added to 4 mM and IPTG added to 0.3 mM. After 16 hours incubation at 15° C., cells were harvested and recombinant proteins were purified on glutathione agarose as described in Park et al. To obtain 6×His-PYL receptor fusion proteins, expression constructs previously described by Okamoto et al. 2013, (PNAS 110(29): 12132-12137) were used. ABA receptors were expressed and purified as described above.
(§4) For the values shown in Table B5, PP2C activity assays using recombinant receptors and PP2Cs were carried out as follows: purified proteins were pre-incubated in 160 μl assay buffer containing 100 mM Tris-HCl-pH7.9, 100 mM NaCl, 3 μg bovine serum albumin, 0.1% 2-mercaptoethanol, 1 mM MnCl2 with ABA or agonists (compounds of the present invention) for 30 minutes at room temperature. Reactions were started by adding 40 μL of a reaction solution containing 25 mM 4-nitrophenyl phosphate in assay buffer after which absorbance measurements were immediately collected using a 405 nm on Wallac plate reader. Reactions contained 100 nM PP2C and 200 nM PYR/PYL proteins. […] For inferring IC50 values, calculations from receptor/PP2C assays containing different concentrations (ranging from 1 μM to 4 nM) were. The obtained dose response data was fit to a log (inhibitor) versus response-(variable slope) model using non-linear regression to infer the IC50s, using Graph Pad Prism 6.0.

The subject of test [2] is corn plants (variety NK OCTET). Kind of test: Water use (WU) of corn plants after foliar spray. Format: in vivo. The note with it: foliar spray at 500 μM, vs negative control; for Total % WU 0 to 2 DAA: cumulative. On the procedure:
Compounds were tested for their effect on reducing plant water use as follows. The compounds were applied by foliar spray to 12 day old corn plants (variety NK OCTET) grown in controlled environment plant growth chambers. All compounds were applied using an emulsifiable concentrate (EC) formulation that was diluted to the desired concentrations with water containing 0.4% of the adjuvant rape seed methyl ester. Plant water use during the day was assessed by repeated weighing of the pots in which the plants were grown before and after application of the compounds at the indicated times (expressed in days after application (DAA)). The water use data before application was used to correct any differences in water use arising due to non-treatment effects (e.g. due to differences in plant size). The untransformed water use values were subjected to an analysis of covariance, fitting the effect of treatment and using the baseline water use 1 day before application as a covariate. Application of the chemicals (0 DAA) takes place approximately between 8 to 9:30 a.m. WU is measured within day time (chamber light is on 6:00 to 20:00) at these timepoints: 0 DAA AM (10:30-12:50) and 0 DAA PM (14:00-19:50), 1 DAA AM (7:30-12:50) and 1 DAA PM (14:00-19:50) and 2 DAA AM (7:30-12:50). The cumulative total WU (0-2 DAA) is calculated by summing the WU data mentioned above.

In test [3] the test system is soybean plants (variety S20-G7). Briefly: Water use (WU) of soybean plants after foliar spray. In kind it is in vivo. The note with it: repeated experiment (Table B2), rate not given; for Total % WU 0 to 2 DAA: cumulative. The protocol:
Chemicals were tested for their effect on reducing plant water use (WU) after being applied by foliar sprays onto soybean plants (variety S20-G7)—grown in controlled environment plant growth chambers. All chemicals were applied using an emulsifiable concentrate (EC) formulation that was diluted with water containing additional surfactant (EXTRAVON 1 g/20 L) to the indicated concentrations. Plant WU was assessed by multiple pot weighing processes before and after application of the chemicals at the indicated times (expressed in days after application (DAA)). The WU data before application was used to correct for differences in water use due to non-treatment effects (e.g. due to differences in plant size). The results are expressed compared to negative control treatment (water with EXTRAVON 1 g/20 L).
Application of the chemicals (0 DAA) takes place approximately between 8 to 9:30 a.m. […] The cumulative total WU (0-2 DAA) is calculated by summing the WU data mentioned above.

For a further test, the target named is PYL2-HAB1 (Arabidopsis thaliana (Mouse-ear cress), UniProt O80992). Kind of test: PP2C activity assay, PYL2-HAB1. In kind it is biochemical. The note with it: 100 nM PP2C, 200 nM PYR/PYL protein, 4-nitrophenyl phosphate substrate; read-out: IC50 of inhibition of PYL2-HAB1.
From the text: as §1, §2, §3, §4

The next test deals with Arabidopsis seeds. Briefly: Arabidopsis germination inhibition analysis. In kind it is in vivo. The note with it: assessed after 3 days at 22° C. in the dark. The protocol:
To analyse the effect of compounds on inhibition of germination, Arabidopsis seeds after-ripened for about 4 weeks were surface-sterilized with a solution containing 5% NaClO and 0.05% Tween-20 for 10 minutes, and rinsed with water four times. Sterilized seeds were suspended with 0.1% agar and sowed on 0.8% solidified agar medium containing ½ Murashige and Skoog (MS) salts (Sigma-Aldrich) in the presence of the relevant treatment, stored at 4° C. for 4 days, and then transferred to 22° C. under the dark conditions. Germination was assessed after 3 days.

Each structure is given as a SMILES string.

Chain of PYL2-HAB1 (O80992 whole entry, looked up): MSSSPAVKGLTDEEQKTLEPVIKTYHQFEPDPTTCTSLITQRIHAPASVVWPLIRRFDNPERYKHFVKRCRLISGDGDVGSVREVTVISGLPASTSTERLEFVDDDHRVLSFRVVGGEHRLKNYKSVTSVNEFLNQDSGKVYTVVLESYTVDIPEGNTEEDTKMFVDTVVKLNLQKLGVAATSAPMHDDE
Chain of PYL2-HAB1 (Q9CAJ0 whole entry partner, looked up): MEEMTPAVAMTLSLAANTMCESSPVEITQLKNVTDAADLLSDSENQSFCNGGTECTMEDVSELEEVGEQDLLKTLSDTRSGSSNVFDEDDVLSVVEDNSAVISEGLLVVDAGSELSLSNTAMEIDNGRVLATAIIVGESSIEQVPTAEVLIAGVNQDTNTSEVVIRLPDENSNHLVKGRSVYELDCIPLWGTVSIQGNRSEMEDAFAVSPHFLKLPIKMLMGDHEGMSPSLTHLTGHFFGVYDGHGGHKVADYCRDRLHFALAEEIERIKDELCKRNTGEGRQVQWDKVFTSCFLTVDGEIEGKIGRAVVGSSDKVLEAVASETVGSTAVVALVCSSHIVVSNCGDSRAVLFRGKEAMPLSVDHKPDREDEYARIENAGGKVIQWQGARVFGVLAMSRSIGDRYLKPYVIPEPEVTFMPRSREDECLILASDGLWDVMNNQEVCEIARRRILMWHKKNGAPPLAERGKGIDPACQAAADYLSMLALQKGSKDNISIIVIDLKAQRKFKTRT
Chain of PYR1-HAB1 (O49686 whole entry, looked up): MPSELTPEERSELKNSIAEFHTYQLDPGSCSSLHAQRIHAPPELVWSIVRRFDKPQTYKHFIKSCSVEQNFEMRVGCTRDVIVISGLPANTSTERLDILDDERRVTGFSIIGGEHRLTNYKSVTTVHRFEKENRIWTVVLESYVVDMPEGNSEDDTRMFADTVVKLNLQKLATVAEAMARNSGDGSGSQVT
Chain of PYR1-HAB1 (Q9CAJ0 whole entry partner, looked up): as the sequence (Q9CAJ0 whole entry partner, looked up) above

Take `CCN1C(=O)CCc2cc(NS(=O)(=O)Cc3ccc(C4CC4)cc3)cc(F)c21` [Compound 1.213, 1-(4-cyclopropylphenyl)-N-(1-ethyl-8-fluoro-2-oxo-3,4-dihydroquinolin-6-yl)methanesulfonamide]: the “% WU 2 DAA PM” value in test [1] is listed as −7%. Also, the IC50 at PYR1-HAB1 came to 21 nM. For the same compound, in test [2], the “Total % WU 0 to 2 DAA” value was −11.4%, the “% WU 0 DAA AM” value is reported as −18.2%, the “% WU 0 DAA PM” value is −15.5% and the “% WU 1 DAA AM” value is reported as −13.4%. In addition, in test [2], the “% WU 1 DAA PM” value is listed as −11.2% and the “% WU 2 DAA AM” value is reported as −7.9%. Also, in test [3], the “% WU 2 DAA PM” value is −38.7% and the “Total % WU 0 to 2 DAA” value is −45.8%. Also, the IC50 at PYL2-HAB1 turned out to be 244 nM.
Take `CCN1C(=O)CC(C)c2cc(NS(=O)(=O)Cc3ccc(C4CC4)cc3)cc(F)c21` (centres unmarked) [Compound 1.220, 1-(4-cyclopropylphenyl)-N-(1-ethyl-8-fluoro-4-methyl-2-oxo-3,4-dihydroquinolin-6-yl)methanesulfonamide]: the “% WU 2 DAA PM” value in test [1] is −9%. Also, the IC50 on PYR1-HAB1 amounted to 71 nM. For the same compound, in test [2], the “Total % WU 0 to 2 DAA” value is −17.8%, the “% WU 0 DAA AM” value is reported as −32.6%, the “% WU 0 DAA PM” value is −35.1% and the “% WU 1 DAA AM” value was −18.2%. In test [2], the “% WU 1 DAA PM” value was −14.1% and the “% WU 2 DAA AM” value was −8.7%. In addition, in test [3], the “% WU 2 DAA PM” value is recorded as −44.6% and the “Total % WU 0 to 2 DAA” value is given as −50.5%. On PYL2-HAB1, the IC50 came to 16 nM.
In the case of `CCCN1C(=O)CCc2cc(NS(=O)(=O)Cc3ccc(C)cc3)ccc21` [drawing 28, reference compound], in the test with Arabidopsis seeds, the “% germination at 1 μM” value is 46% and the “% germination at 5 μM” value came to 0%.
Turning to `CCCN1C(=O)CCc2cc(NS(=O)(=O)Cc3ccc(C4CC4)cc3)ccc21` [drawing 29], in the test on Arabidopsis seeds, the “% germination at 1 μM” value was 42% and the “% germination at 5 μM” value was 0%.

For the origin of these results see patent US10167261B2, “2-oxo-3,4-dihydroquinolin-6-yl sulphonamide CPDS and their use as plant growth regulators” (THE REGENTS OF THE UNIVERSITY OF CALIFORNIA, priority 2014, dated 2019).
